Test results as given in US7763596B2, “Selective glucocorticoid receptor agonists” (The University of Manchester, priority 2000, dated 2010).

What was measured:
Assay type in all cases: cell-based
[1] = target: T1, GR ligand binding domain / SRC-1 (Homo sapiens, UniProt P04150); assay: SRC-1 association assay by mammalian two-hybrid analysis; conditions: 100 nM
T1 construct: expressed in transfected cells
T1 sequence (P04150 524-758 limits assumed): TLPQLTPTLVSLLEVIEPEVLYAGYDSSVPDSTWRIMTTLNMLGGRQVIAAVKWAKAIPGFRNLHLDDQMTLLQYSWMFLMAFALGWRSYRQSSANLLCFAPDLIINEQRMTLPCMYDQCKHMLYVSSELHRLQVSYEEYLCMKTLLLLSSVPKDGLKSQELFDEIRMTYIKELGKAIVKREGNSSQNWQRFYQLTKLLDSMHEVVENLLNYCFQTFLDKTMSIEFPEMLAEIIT
Excerpt: SRC-1 is an important co-activator of GR action that associates with the GR in a ligand dependant manner. The ability of SRC-1 to associate with the GR in this manner can be used as a measure of potency of ligand mediated transactivation. To perform this assay plasmids that generated VP16-GR ligand binding domain (LBD) and GAL4-SRC-1 fusion proteins and a GAL4 binding luciferase reporter gene construct were transfected into in a cell line lacking GR and deficient in endogenous SRC-1. The GAL4-SRC-1 fusion protein could bind to specific sites upstream of the luciferase reporter gene construct. If the SRC-1 fusion protein associated with the ligand bound VP16-GRLBD fusion protein then the VP-16 activation domain augmented the luciferase gene expression.

[2] = target: T2, progesterone receptor (PRB) (Homo sapiens, UniProt P06401); assay: Progestogen activity assay using progesterone receptor transactivation; conditions: 100 nM, AH3-luc reporter, COS7
T2 construct: expressed in transfected cells; host or cells: COS 7
T2 sequence (P06401 1-933): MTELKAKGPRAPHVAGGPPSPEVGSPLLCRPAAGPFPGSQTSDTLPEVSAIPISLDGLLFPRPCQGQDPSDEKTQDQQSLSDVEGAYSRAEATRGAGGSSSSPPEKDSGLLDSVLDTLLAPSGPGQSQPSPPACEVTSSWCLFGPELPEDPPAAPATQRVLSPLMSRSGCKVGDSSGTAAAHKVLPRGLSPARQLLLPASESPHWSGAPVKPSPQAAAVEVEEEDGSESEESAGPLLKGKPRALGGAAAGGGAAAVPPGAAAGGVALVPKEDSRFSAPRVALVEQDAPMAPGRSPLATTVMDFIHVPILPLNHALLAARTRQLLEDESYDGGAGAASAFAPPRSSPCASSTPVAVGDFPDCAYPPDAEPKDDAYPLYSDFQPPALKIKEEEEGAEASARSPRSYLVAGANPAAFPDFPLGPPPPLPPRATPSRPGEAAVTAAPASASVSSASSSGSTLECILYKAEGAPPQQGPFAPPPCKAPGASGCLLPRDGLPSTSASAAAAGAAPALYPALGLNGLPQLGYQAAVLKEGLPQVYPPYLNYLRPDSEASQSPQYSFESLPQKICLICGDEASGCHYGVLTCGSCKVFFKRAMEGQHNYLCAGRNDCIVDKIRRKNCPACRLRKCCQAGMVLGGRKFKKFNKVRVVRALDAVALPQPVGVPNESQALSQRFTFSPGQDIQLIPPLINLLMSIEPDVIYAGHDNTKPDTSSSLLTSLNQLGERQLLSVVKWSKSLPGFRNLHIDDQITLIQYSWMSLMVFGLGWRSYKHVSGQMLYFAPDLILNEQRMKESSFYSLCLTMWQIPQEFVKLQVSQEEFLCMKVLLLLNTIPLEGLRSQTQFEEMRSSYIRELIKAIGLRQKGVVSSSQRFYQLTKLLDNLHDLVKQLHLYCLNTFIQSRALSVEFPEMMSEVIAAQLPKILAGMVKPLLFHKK
Excerpt: As the GR LBD has strong homology with the PR LBD there is a chance that any of the tested steroids of FIGS. 1 and 2A that activate one of these receptors may also activate the other. The presence of illegitimate progestogen activity associated with the steroids of FIGS. 1 and 2A was examined using a transactivation assay with the PR instead of the GR.
The PR was artificially expressed in a cell line lacking endogenous PR and a GRE “driving” a luciferase reporter gene was used to measure ligand dependent activation.
COS7 cells were transfected with 1 μg pSEO-PRB and 3 μg AH3-Luc per 10 cm tissue culture dish. The cells were plated out in to 24 well plates after transfection and the steroids of FIGS. 1 and 2A were added immediately to generate a final concentration of 100 nM. After 18 hour incubation the cells were lysed and a luciferase assay was performed.

[3] = target: T3, glucocorticoid receptor (Homo sapiens, UniProt P04150); assay: Transactivation assay using artificially expressed glucocorticoid receptor in the COS 7 monkey kidney cell line (GRE luciferase); design: expressed in transfected cells; host or cells: COS 7 (African green monkey kidney, deficient in endogenous GR); conditions: 1, 10, 10 and 500 nM; FIG. 5
T3 sequence (P04150 1-777): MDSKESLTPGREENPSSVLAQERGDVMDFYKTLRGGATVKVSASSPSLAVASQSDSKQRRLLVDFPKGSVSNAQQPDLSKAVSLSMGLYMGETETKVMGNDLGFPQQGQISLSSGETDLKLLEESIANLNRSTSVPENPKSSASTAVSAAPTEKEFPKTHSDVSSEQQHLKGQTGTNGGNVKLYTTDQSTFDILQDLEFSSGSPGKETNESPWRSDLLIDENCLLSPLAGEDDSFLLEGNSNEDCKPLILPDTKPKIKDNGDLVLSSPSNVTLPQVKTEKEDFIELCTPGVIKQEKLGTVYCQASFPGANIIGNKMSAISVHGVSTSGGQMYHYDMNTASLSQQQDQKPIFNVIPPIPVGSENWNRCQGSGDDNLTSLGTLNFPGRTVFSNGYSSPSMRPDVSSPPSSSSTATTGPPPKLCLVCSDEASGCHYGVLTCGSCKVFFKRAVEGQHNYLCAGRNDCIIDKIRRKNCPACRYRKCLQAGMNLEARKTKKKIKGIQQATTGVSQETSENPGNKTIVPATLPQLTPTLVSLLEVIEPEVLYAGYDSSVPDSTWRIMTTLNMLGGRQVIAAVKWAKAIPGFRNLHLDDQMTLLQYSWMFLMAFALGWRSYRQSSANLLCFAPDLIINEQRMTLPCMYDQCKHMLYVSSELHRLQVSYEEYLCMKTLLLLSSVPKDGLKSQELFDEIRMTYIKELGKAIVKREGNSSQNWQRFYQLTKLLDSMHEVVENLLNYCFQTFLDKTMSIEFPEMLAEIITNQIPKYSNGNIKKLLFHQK
Method: (§1) All transfections were performed using lipofectamine plus (Gibco BRL), according to the manufacturers' instructions, as previously described^1. Briefly, all cells were seeded at 5×10^5 per 10 cm tissue culture plate 18 hours before transfection, the next day the relevant plasmids were mixed with serum free medium and “Plus” reagent (Gibco BRL) and incubated for 15 mins, lipofectamine reagent was added and the mix was incubated for a further 15 mins, this mix was added to the cells on serum free medium in the 10 cm tissue culture plates and left for 3 hours, the cells were then trypsinised and divided into 24 well plates, the cells were left to recover overnight and were treated with steroid for 16 hours before harvest. All experiments were performed from one transfection in triplicate and on separate occasions with similar results.
(§2) The firefly luciferase gene catalyses the production of light from the substrate luciferin. When plasmid constructs containing this gene are transfected into cell lines the activity of the gene can be assessed by the intensity of the luminesence. The luciferase assay yields luminescence through an ATP-dependent oxidation of luciferin the amount of light produced can be measured by a luminometer and is a measure of gene activity (Davis, 1996). Light intensity was measured in a Luminometer (LB 9501, Berthold). The light intensity should be proportional to luciferase concentration in the range of 10^−16M (10 μg/L) to 10^−8M (1 mg/L). To measure the luminescence of the treated cells 150 μl of 1× reporter lysis buffer (RLB: 25 mM Tris phosphate pH7.8, 10 mM MgCl2, 15% Glycerol, 1% Triton, 1 mM EDTA) was added to the 24 well plates to lyse the cells and incubated at room temperature for 30 mins whilst being shaken. Then 100 μl of the room temperature cell extract were mixed with 100 μl of room temperature Luciferase Assay Reagent (LAR: 1 mM ATP, 0.3 mM D-Luciferin, 66% RLB). This reaction was mixed in a luminometer (LB 9501, Berthold) and the light produced was measured for a period of 5 seconds.
In this assay the GR was artificially expressed in a cell line lacking endogenous GR and a glucocorticoid response element (GRE) “driving” a luciferase reporter gene was used to measure ligand dependent activation.
COS7 cells were transfected with 1 μg pcDNA3-GR and 3 μg AH3-Luc per 10 cm tissue culture dish. The cells were plated out in to 24 well plates after transfection and the steroids were added immediately. After 18 hour incubation the cells were lysed and a luciferase assay was performed.

[4] = target: T3, glucocorticoid receptor; assay: Transrepression assay using artificially expressed glucocorticoid receptor and P65 in the COS 7 cell line (NRE luciferase); design: expressed in transfected cells; host or cells: COS 7 (African green monkey kidney, deficient in endogenous GR); conditions: 1, 10 and 100 nM
Method: as §1, §2
To perform this assay the GR and p65 were artificially expressed in a cell line lacking GR and deficient in endogenous P65. The ability of P65 to activate an NFkB response element (NRE) “driving” a luciferase reporter gene could then be repressed by GR in a ligand dependent manner and, therefore, used to measure transrepression.
COS7 cells were transfected with 1 μg pcDNA3-GR and 3 μg NRE-Luc and 200 ng p65 per 10 cm tissue culture dish. The cells were plated out in to 24 well plates after transfection and left for 18 hours to recover before the steroids of FIGS. 1 and 2A were added. After another 18 hour incubation the cells were lysed and a luciferase assay was performed.

[5] = target: T3, glucocorticoid receptor; assay: Type II antagonist activity assay: competition of dexamethasone transactivation; design: expressed in transfected cells; host or cells: COS 7 (African green monkey kidney, deficient in endogenous GR); conditions: 1, 10, 100 nM; 1 nM dexamethasone
Method: A type II antagonist should be able to compete agonist activity. As an antagonist has no ability to transactivate, competition can be measured by inhibition of an agonist in a transactivation assay.
As with the standard transactivation assay previously described, the GR was artificially expressed in a cell line lacking endogenous GR and a GRE “driving” a luciferase reporter gene was used to measure ligand dependent activation. COS7 cells were transfected with 1 μg pcDNA3-GR and 3 μg AH3-Luc per 10 cm tissue culture dish. The cells were plated out in to 24 well plates after transfection and the steroids were added immediately. […] Certain steroids from FIG. 2A were added at the same concentration to all sample wells. After 18 hour incubation the cells were lysed and a luciferase assay was performed.

SMILES	PRB reporter gene activation [2]	further results
CC1CC2C3CCC4=CC(=O)C=CC4(C)C3(F)C(O)CC2(C)C1(O)C(=O)NCc1ccccc1 (stereo not shown) [Compound K]	slightly increased reporter gene activation compared to that of dexamethasone	SRC-1 recruitment at the highest concentration tested [1]: significant response
CNC(=O)C1(O)C(C)CC2C3CCC4=CC(=O)C=CC4(C)C3(F)C(O)CC21C (stereo not shown) [Compound M]	slightly increased reporter gene activation compared to that of dexamethasone	–
CC1CC2C3CCC4=CC(=O)C=CC4(C)C3(F)C(O)CC2(C)C1(O)C(=O)COC(=O)Nc1ccccc1 (stereo not shown) [Compound N]	slightly increased reporter gene activation compared to that of dexamethasone	–
CC1CC2C3CCC4=CC(=O)C=CC4(C)C3(F)C(O)CC2(C)C1(O)C(=O)COC(=O)Nc1ccc(F)cc1 (stereo not shown) [Compound S]	slightly increased reporter gene activation compared to that of dexamethasone	SRC-1 recruitment at the highest concentration tested [1]: significant response
CCCN(CCC)C(=O)C1(O)C(C)CC2C3CCC4=CC(=O)C=CC4(C)C3(F)C(O)CC21C (stereo not shown) [P]	–	transactivation potential (luminescence) compared to dexamethasone, repeat experiment [3]: “right shifted response” and a reduced maximum compared to dexamethasone; repression of P65 stimulation of an NFkB response element compared with dexamethasone [4]: no effect at 1 and 10 nM with only a negligible repression at 100 nM
CC#C[C@]1(O)CC[C@H]2[C@@H]3CCC4=CC(=O)CCC4=C3[C@@H](c3ccc(N(C)C)cc3)C[C@@]21C [RU486, reference compound]	–	maximal repression of transactivation [5]: ~50%
CC(=O)[C@H]1CC[C@H]2[C@@H]3CCC4=CC(=O)CC[C@]4(C)[C@H]3CC[C@]12C [progesterone, reference compound]	strong induction of the reporter gene	–
